Experimental data taken from patent US3995021A, “Antigens of 5,5'alkylphenyl barbituric acids and related hydantoin compounds” (Biological Developments, Inc., priority 1975, dated 1976).

Tested on: antibodies raised with the product of Example 1
Assay: Radioimmune assay: cross-reactivity of other barbituric acids (competitive inhibition of tritiated phenobarbital binding to antibody)
Settings: at 50% inhibition, 4° C, 2 hours

| Structure (SMILES) | Percent Cross-Reactivity |
| --- | --- |
| CCC1(CCC(C)C)C(=O)NC(=O)NC1=O [Amobarbital] | 0.6% |
| CCCC(C)C1(CC)C(=O)NC(=O)NC1=O (stereo not shown) [Pentobarbital] | 2.2% |
| C=CCC1(C(C)CCC)C(=O)NC(=O)NC1=O (stereo not shown) [Secobarbital] | 1.8% |
| CCCC(C)C1(CC)C(=O)NC(=S)NC1=O (stereo not shown) [Thiopental] | 0.2% |
